Laboratory results published in ChEMBL document CHEMBL3112504, “Design, structural and biological characterization of a VEGF inhibitor β-hairpin-constrained peptide” (2014).
Active and inactive are the calls of the source. The rule behind the calls is not given here. Peptide text beside a SMILES is read from it.

What was measured:
HUVEC [1] = assay: Inhibition of VEGFR in HUVEC assessed as reduction in VEGF-induced ERK1/2 phosphorylation at 25 to 100 ng/ml after 15 mins by Western blotting analysis; type: cell-based; conditions: Homo sapiens
HUVEC [2] = assay: Inhibition of VEGFR in HUVEC assessed as reduction in Akt phosphorylation at 25 to 100 ng/ml after 15 mins by Western blotting analysis; type: cell-based; conditions: Homo sapiens
HUVEC [3] = assay: Inhibition of VEGF-induced HUVEC proliferation at 50 to 100 […] after 48 hrs by CyQuant cell proliferation assay; type: functional, Homo sapiens
HUVEC [4] = assay: Inhibition of VEGFR in HUVEC assessed as reduction in VEGF-induced Akt phosphorylation at 25 to 100 ng/ml after 15 mins by Western blotting analysis; type: cell-based; conditions: Homo sapiens
HUVEC [5] = assay: Induction of proapoptosis in HUVEC assessed as increase in caspase 3 activity at 25 to 100 ng/ml after 8 hrs by fluorimetric assay; type: functional, cell-based; conditions: Homo sapiens
HUVEC [6] = assay: Inhibition of VEGFR in HUVEC assessed as reduction in ERK1/2 phosphorylation at 25 to 100 ng/ml after 15 mins by Western blotting analysis; type: cell-based; conditions: Homo sapiens
HUVEC [7] = assay: Induction of proapoptosis in VEGF-treated HUVEC assessed as increase in caspase 3 activity after 8 hrs by fluorimetric assay; type: functional, cell-based; conditions: Homo sapiens
HUVEC [8] = assay: Induction of proapoptosis in VEGF-treated HUVEC assessed as increase in caspase 3 activity at 25 to 100 ng/ml after 8 hrs by fluorimetric assay; type: functional, cell-based; conditions: Homo sapiens
HUVEC [9] = assay: Inhibition of VEGFR in HUVEC assessed as reduction in VEGF-induced ERK1/2 phosphorylation at 100 ng/ml after 15 mins by Western blotting analysis; type: cell-based; conditions: Homo sapiens
HUVEC [10] = assay: Inhibition of VEGFR in HUVEC assessed as reduction in VEGF-induced Akt phosphorylation at 100 ng/ml after 15 mins by Western blotting analysis; type: cell-based; conditions: Homo sapiens
HUVEC [11] = assay: Induction of proapoptosis in VEGF-treated HUVEC assessed as increase in caspase 3 activity at 100 ng/ml after 8 hrs by fluorimetric assay; type: functional, cell-based; conditions: Homo sapiens

Compound: CC[C@H](C)[C@H](NC(=O)[C@H](Cc1c[nH]c2ccccc12)NC(=O)[C@H](CC(C)C)NC(=O)[C@H](CS)NC(=O)[C@H](CCC(N)=O)NC(=O)[C@@H](N)CCCCN)C(=O)N[C@@H](CCCNC(=N)N)C(=O)N[C@@H](CO)C(=O)NCC(=O)N[C@@H](CC(=O)O)C(=O)N[C@@H](CCCNC(=N)N)C(=O)N1CCC[C@H]1C(=O)N[C@@H](Cc1c[nH]c2ccccc12)C(=O)N[C@@H](Cc1ccc(O)cc1)C(=O)N[C@@H](CS)C(=O)N[C@H](C(=O)N[C@@H](CO)C(=O)O)[C@@H](C)O (H-KQCLWIRSGDRPWYCTS-OH)
- inhibition (HUVEC [1]): Active
- inhibition (HUVEC [2]): inactive
- inhibition (INH) (HUVEC [3]): >95%
- inhibition (HUVEC [4]): Active
- Activity (HUVEC [5]): inactive
- inhibition (HUVEC [6]): inactive
- Activity (HUVEC [7]): Dose-dependent effect
- Activity (HUVEC [8]): Active

Compound: H-KPDRWSQWRSTYSLSIG-OH
- inhibition (HUVEC [9]): inactive
- inhibition (HUVEC [3]; Homo sapiens): inactive
- inhibition (HUVEC [10]): inactive
- Activity (HUVEC [11]): inactive
